Legend:
[1] = system: Daoy cells; test: Expression of differentiation and proliferation markers (real-time PCR, Western blot); type: cell-based, human
Procedure: Total RNA was extracted from the cell lines using the Trizol reagent (Invitrogen). Synthesis of cDNA from total RNA (4 μg) was performed using a Super Script II First Strand Kit (Invitrogen). Real-time quantitative PCR was performed using standard protocols with an Applied Biosystems ABI PRISM 7900HT Sequence Detection system. To calculate the relative gene expression of the miR-199b-5p precursor, the relative amounts of each pre-miRNA were normalized to U6 miRNA; the other genes were normalized using the β-actin gene. Real-time PCR primers for each gene were designed using Primer Express software version 2.0 (Applied Biosystems). The primer sequences are available upon request.
Thirty μg cytosolic or nuclear lysates were loaded onto 12% polyacrilamide gels, and blotted onto polyvinylidene difluoride membranes (PVDF; BioRad, Milan, Italy). The membranes were then incubated with anti-HES1 (kind gift of Dr. Tetsuo Sudo TORAY Industries, Tebiro Kamakura, Japan), a polyclonal rabbit antibody (1:500), an anti-GSK3-β (B&D Bioscience) monoclonal antibody (1:2500), an anti-c-Myc polyclonal rabbit antibody (1:200) (Santa Cruz Biotechnology, Santa Cruz, Calif., USA), an anti-GABRA6 antibody (Santa Cruz Biotechnology, Santa Cruz, USA) (1:200), an anti-MATH3 antibody (Santa Cruz Biotechnology, Santa Cruz, USA) (1:200) and an anti-cyclin D1 (1:200) polyclonal rabbit antibody (Cell Signaling). An anti-β-actin antibody (1:1.000) (Sigma) was used as the control for equal loading of cytosolic lysates and a polyclonal anti-β-laminin antibody (1:50) (Santa Cruz Biotechnology, Santa Cruz, Calif., USA) for equal loading of nuclear lysates.

[2] = system: Daoy cells; test: Proliferation assay MTS, Daoy; type: cell-based, human; details: stable 199bMC1 and 199bSC1 clones vs empty-vector clone
Procedure: (§1) Cell proliferation was determined using the CellTiter96 AQueous Non-Radioactive Cell Proliferation Assay Kit (Promega Madison, Wis.). The cells were seeded into 96-well plates at a density of 1×10^3 cells/well in EMEM without or with FBS. After 0, 24, 48 and 72 h, MTS ([3-(4,5-dimethylthiazol-2-yl)-5-(3-carboxymethoxyphenyl)-2-(4-sulfophenyl)-2H-tetrazolium]) and PMS (phenazine methosulfate) were added to each well and after 4 h the absorbance of each well was measured at 490 nm (OD490) using Multilabel counter Victor^3 (Perkin Elmer). Each condition was performed with five wells and each experiment was repeated twice.
Proliferation assay (MTS) was made by kit CellTiter96 AQueous Non-Radioactive Cell Proliferation Assay (Promega) for 72 h. The cell lines daoy, MDA-231T and 4t1 treated with the control SNALP and with the miR 199b-5p were transferred in 96 multiwell at the concentration of 1000 and 3000 cells (daoy, MDA-231T and 4t1, respectively) in 100 μl of complete medium. For each experimental point were done 5 replicates. After 24, 48 e 72 h in each well was added 20 μl of 5× solution. After 4 h was read the absorbance of the formazane at 490 nm by Multilabel counter Victor3 (Perkin Elmer).

[3] = system: D283MED cells; test: Proliferation assay MTS, D283MED; type: cell-based, human; details: transient transfection vs mock-transfected cells
Procedure: as §1

[4] = system: NHLH2 3′UTR; test: Luciferase reporter assay, full-length 3′UTR; type: cell-based; details: miR-199b-5p over-expression in Daoy cells
Procedure: (§2) To determine the activity of miR-199b-5p on repression of the luciferase-3′UTR fused constructs, the pREYZO-miR-199b-5p construct and the pRL-CMV-3′UTR target construct were co-transfected into HEK293 cells at a ratio of 10:1, using the Polyfect reagent (Qiagen) together with the pGL3 basic vector, in the absence and presence of 2-OM (400 nM). Luciferase activities were analysed using a Dual Luciferase Reporter Assay system (Promega, Madison, Wis.).

[5] = system: Nanog 3′UTR; test: Luciferase reporter assay, full-length 3′UTR; type: cell-based; details: miR-199b-5p over-expression in Daoy cells
Procedure: as §2

[6] = system: HES1 3′UTR; test: Luciferase reporter assay, HES1 3′UTR; type: cell-based, human; details: co-transfected miR-199b-5p expression vector
Procedure: as §2
Pre-miR-199b was cloned in a pcDNA3 modified vector (pREYZO) (D'angelo et al., 2004) using EcoRI-XhoI restriction sites. HES1 and GSK-3˜target-binding sites (3′UTRs) were cloned in tandem in the 3′UTR of 20 the pRL-cytomegalovirus (CMV) vector (Promega, Madison, Wis.) downstream of the coding region of Renilla luciferase (RL) in the XbaI site The HES1 3′UTR (including the 199b binding site) was amplified from genomic DNA with the following primers: HES1—3′UTR as […] (SEQ ID NO: 96) and HES1—3′UTR as […] (SEQ ID NO: 97), and was cloned in the TK vector (Promega, Madison, Wis.) upstream of the firefly luciferase gene, in the XbaI sites. HES1 full-length cDNA was obtained with a standard RTPCR approach from a Daoy cDNA.
The site-directed mutagenesis of the miR-199b-5p binding site in HES1 3′UTR was generated according to the manufacturer protocol of the QuikChange site-directed mutagenesis kit (Stratagene, La Jolla, Calif.). […]

[7] = system: Daoy cell side population; test: Side population FACS (Hoechst 33342 exclusion); type: cell-based, human
Procedure: (§3) The flow cytometry analysis of S-phase fractions and cell-cycle kinetics were carried out using a FACSCalibur (Becton Dickinson, San Jose, Calif.) using CELL Quest version 3.3 software. The CD133 studies were carried out using the same instrument, with antibodies from Miltenyi Biotec (Auburn, Calif.), according to the manufacturer instructions. In brief, the cells were blocked in Fc receptor blocking reagent and incubated with an anti-CD133/1 (AC133)-phycoerythrin antibody (Miltenyi Biotec), for 10 min in the dark at 4° C. The cells were then washed and resuspended in PBS. Cells expressing higher levels of CD133 than the immunoglobulin G (IgG) controls were considered positive. For analyses of the side populations, cells […] were incubated with Hoechst 33342 (5 μmol/L; Sigma) for 90 min at 37° C. in EMEM containing 2% FBS. To ensure the correct identification of the side population cells, the cells were incubated as above with the addition of 50 μM verapamil (Sigma).

[8] = system: Daoy cells; test: FACS cell-cycle analysis (propidium iodine); type: cell-based, human
Procedure: as §3

[9] = Western blot, stable 199bSC1 clone
[10] = stable 199bSC1 clone vs empty vector clone

## miR-199b-5p: mature microRNA CCCAGUGUUUAGACUAUCUGUUC (SEQ ID NO:11); over-expressed from pre-miR-199b construct, e.g. stable Daoy clones 199bSC1, 199bMC1 (listed as RNA, chemistry not fully specified)
[1]; [9]
  GABRA6 protein: up-regulated
  MATH3 protein: up-regulated
  c-Myc protein: decreased
  cyclin D1 protein: decreased
[1]; real-time PCR, both stable clones
  expression of pro-neural bHLH (MASH1, MATH3, NGN2): increases in expression
[1]; real-time PCR, stable 199bSC1 and 199bMC1 clones
  MAP2 mRNA expression: up-regulated
[1]; real-time PCR, stable 199bSC1 clone
  GFAP levels: increased
[1]; real-time PCR, stable clones
  GABRA6 mRNA expression: significantly over-expressed
  c-Myc expression: decreased
  cyclin D1 expression: decreased
[2]
  proliferation rate: markedly reduced proliferation rates
[3]
  proliferation: decreased proliferation
[4]
  down-regulation of reporter carrying NHLH2 3′UTR: did not detect any down-regulatory effects
[5]
  down-regulation of reporter carrying Nanog 3′UTR: did not detect any down-regulatory effects
[6]
  effect on luciferase reporter with HES1 3′UTR mutated in the miR-199b binding site: no effect
[6]; HEK293 and Daoy cell lines
  reduction of luciferase activity from wild-type HES1 3′UTR reporter: 50%
[7]; stable 199bMC1 clone (Daoy cells 5.2%)
  fraction of SP cells: 0.4%
[7]; stable 199bSC1 clone (Daoy cells 5.2%)
  fraction of SP cells: 0.2%
[8]; stable 199bMC1 clone
  changes in cell cycle: did not show significant changes
[8]; [10]
  decrease in S-phase fractions: 31%
  increase in cells in G0-G1: 15%

Reference: patent US9017938B2, “Use of microrna-199b-5p in medical and diagnostic field” (Advanced Accelerator Applications, priority 2009, dated 2015)
